Experimental data taken from patent US12660819B2, “Herbicidal derivatives” (SYNGENTA CROP PROTECTION AG, priority 2020, dated 2026).

Tests used:
Assay type in all cases: in vivo
[1] = system: Ipomoea hederacea (IPOHE); assay: Pre-emergence Test (glasshouse, percentage damage to the plant); conditions: 1000 g/ha unless otherwise stated; for percentage damage to the plant, IPOHE: five-point scale; for percentage damage to the plant, IPOHE (five-point scale): Ipomoea hederacea
[2] = system: Setaria faberi (SETFA); assay: as above; conditions: 1000 g/ha unless otherwise stated; for percentage damage to the plant, SETFA: five-point scale; for percentage damage to the plant, SETFA (five-point scale): Setaria faberi
[3] = system: Setaria faberi (SETFA); assay: Post-emergence Test (glasshouse, percentage damage to the plant); conditions: 1000 g/ha unless otherwise stated, evaluated after 13 days; for Post-emergence Test SETFA, percentage damage to the plant (five-point scale): post-emergence spray; for SETFA, percentage damage caused to the plant (five-point scale): post-emergence
Outline: (§1)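 After sowing in standard soil, pots were kept at 24/16 °C (day/night), 14 h light and 65% humidity. They were sprayed at 1000 g/ha unless otherwise stated, watered twice daily, and assessed for percentage damage at 13 days on a 1–5 scale.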

[4] = system: Ipomoea hederacea (IPOHE); assay: as above; conditions: 1000 g/ha unless otherwise stated, evaluated after 13 days; for Post-emergence Test IPOHE, percentage damage to the plant (five-point scale): post-emergence spray; for IPOHE, percentage damage caused to the plant (five-point scale): post-emergence
Outline: as §1

[5] = system: Amaranthus retoflexus (AMARE); assay: as above; conditions: 1000 g/ha unless otherwise stated, evaluated after 13 days; for Post-emergence Test AMARE, percentage damage to the plant (five-point scale): post-emergence spray; for AMARE, percentage damage caused to the plant (five-point scale): post-emergence
Outline: (§2)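 Rate 1000 g/ha unless stated otherwise. Vehicle: acetone/water 50:50 with 0.5% Tween 20, diluted into aqueous spray. Timing: spray after sowing, read 13 days later. Score: 5=81-100%, 4=61-80%, 3=41-60%, 2=21-40%, 1=0-20% damage.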

[6] = system: Abutilon theophrasti (ABUTH); assay: as above; conditions: 1000 g/ha unless otherwise stated, evaluated after 13 days; for Post-emergence Test ABUTH, percentage damage to the plant (five-point scale): post-emergence spray; for ABUTH, percentage damage caused to the plant (five-point scale): post-emergence
Outline: as §2

[7] = system: Zea mays (ZEAMX); assay: as above; conditions: 1000 g/ha unless otherwise stated, evaluated after 13 days; for Post-emergence Test ZEAMX, percentage damage to the plant (five-point scale): post-emergence spray; for ZEAMX, percentage damage caused to the plant (five-point scale): post-emergence
Outline: as §1

[8] = system: Amaranthus retoflexus (AMARE); assay: Pre-emergence Test (glasshouse, percentage damage to the plant); conditions: 1000 g/ha unless otherwise stated; for percentage damage to the plant, AMARE: five-point scale; for percentage damage to the plant, AMARE (five-point scale): Amaranthus retoflexus
[9] = system: Zea mays (ZEAMX); assay: as above; conditions: 1000 g/ha unless otherwise stated; for percentage damage to the plant, ZEAMX: five-point scale; for percentage damage to the plant, ZEAMX (five-point scale): Zea mays
[10] = system: Abutilon theophrasti (ABUTH); assay: as above; conditions: 1000 g/ha unless otherwise stated; for percentage damage to the plant, ABUTH: five-point scale; for percentage damage to the plant, ABUTH (five-point scale): Abutilon theophrasti
[11] = system: Echinochloa crus-galli (ECHCG); assay: as above; conditions: 1000 g/ha unless otherwise stated; for percentage damage to the plant, ECHCG: five-point scale; for percentage damage to the plant, ECHCG (five-point scale): Echinochloa crus-galli
[12] = system: Echinochloa crus-galli (ECHCG); assay: Post-emergence Test (glasshouse, percentage damage to the plant); conditions: 1000 g/ha unless otherwise stated, evaluated after 13 days; for Post-emergence Test ECHCG, percentage damage to the plant (five-point scale): post-emergence spray; for ECHCG, percentage damage caused to the plant (five-point scale): post-emergence
Outline: as §2

Compound | percentage damage to the plant, IPOHE [1] | percentage damage to the plant, SETFA [2] | Post-emergence Test SETFA, percentage damage to the plant (five-point scale) [3] | Post-emergence Test IPOHE, percentage damage to the plant (five-point scale) [4] | Post-emergence Test AMARE, percentage damage to the plant (five-point scale) [5] | Post-emergence Test ABUTH, percentage damage to the plant (five-point scale) [6] | Post-emergence Test ZEAMX, percentage damage to the plant (five-point scale) [7] | percentage damage to the plant, AMARE [8] | percentage damage to the plant, ZEAMX [9] | percentage damage to the plant, ABUTH [10] | percentage damage to the plant, ECHCG [11] | percentage damage to the plant, IPOHE (five-point scale) [1] | percentage damage to the plant, SETFA (five-point scale) [2] | SETFA, percentage damage caused to the plant (five-point scale) [3] | IPOHE, percentage damage caused to the plant (five-point scale) [4] | AMARE, percentage damage caused to the plant (five-point scale) [5] | ZEAMX, percentage damage caused to the plant (five-point scale) [7] | percentage damage to the plant, AMARE (five-point scale) [8] | percentage damage to the plant, ZEAMX (five-point scale) [9] | percentage damage to the plant, ECHCG (five-point scale) [11] | further results
CCn1c(C)c(-c2ccc(Cl)cc2)c(=O)c(C(=O)O)c1-c1ccc(Br)cc1F [Compound 133, 2-(4-bromo-2-fluoro-phenyl)-5-(4-chlorophenyl)-1-ethyl-6-methyl-4-oxo-pyridine-3-carboxylic acid] | 2 (2=21-40%) | 5 (5=81-100%) | 1 (1=0-20%) | 3 (3=41-60%) | 4 (4=61-80%) | 2 (2=21-40%) | 1 (1=0-20%) | 2 (2=21-40%) | 2 (2=21-40%) | 3 (3=41-60%) | 4 (4=61-80%) |  |  |  |  |  |  |  |  |  | 
CCn1c(C)c(-c2ccc(F)cc2OC)c(=O)c(C(=O)OC)c1-c1ccc(Cl)c(Cl)c1 [Compound 164, methyl 2-(3,4-dichlorophenyl)-1-ethyl-5-(4-fluoro-2-methoxy-phenyl)-6-methyl-4-oxo-pyridine-3-carboxylate] | 0 | 0 | 1 (1=0-20%) | 1 (1=0-20%) | 1 (1=0-20%) | 1 (1=0-20%) | 1 (1=0-20%) | 0 | 0 |  | 0 |  |  |  |  |  |  |  |  |  | Post-emergence Test ECHCG, percentage damage to the plant (five-point scale) [12]: 0
CCn1c(C)c(-c2cc(Cl)c(F)c(Cl)c2)c(=O)c(C(=O)O)c1-c1ccc(Cl)cc1 [Compound 178, 2-(4-chlorophenyl)-5-(3,5-dichloro-4-fluoro-phenyl)-1-ethyl-6-methyl-4-oxo-pyridine-3-carboxylic acid] | 0 | 0 | 0 | 1 (1=0-20%) | 1 (1=0-20%) |  | 1 (1=0-20%) | 0 | 0 | 0 | 0 |  |  |  |  |  |  |  |  |  | Post-emergence Test ECHCG, percentage damage to the plant (five-point scale) [12]: 1 (1=0-20%)
CCn1c(C)c(-c2cccc(OC)c2F)c(=O)c(C(=O)O)c1-c1ccc(Cl)cc1 [Compound 179, 2-(4-chlorophenyl)-1-ethyl-5-(2-fluoro-3-methoxy-phenyl)-6-methyl-4-oxo-pyridine-3-carboxylic acid] | 3 (3=41-60%) | 1 (1=0-20%) | 3 (3=41-60%) | 3 (3=41-60%) | 2 (2=21-40%) |  | 1 (1=0-20%) | 1 (1=0-20%) | 0 | 3 (3=41-60%) | 1 (1=0-20%) |  |  |  |  |  |  |  |  |  | Post-emergence Test ECHCG, percentage damage to the plant (five-point scale) [12]: 2 (2=21-40%)
CCn1c(C)c(-c2ccc(F)cc2F)c(=O)c(C(=O)O)c1-c1ccc(Cl)cc1 [Compound 192, 2-(4-chlorophenyl)-5-(2,4-difluorophenyl)-1-ethyl-6-methyl-4-oxo-pyridine-3-carboxylic acid] | 1 (1=0-20%) | 2 (2=21-40%) | 4 (4=61-80%) | 2 (2=21-40%) | 2 (2=21-40%) | 4 (4=61-80%) | 2 (2=21-40%) | 1 (1=0-20%) | 0 | 2 (2=21-40%) | 2 (2=21-40%) |  |  |  |  |  |  |  |  |  | 
CCn1c(C)c(-c2ccc(C#N)cc2)c(=O)c(C(=O)O)c1-c1ccc(Cl)cc1 [Compound 198, 2-(4-chlorophenyl)-5-(4-cyanophenyl)-1-ethyl-6-methyl-4-oxo-pyridine-3-carboxylic acid] |  |  |  |  |  |  |  |  |  |  |  | 1 (1=0-20%) | 0 | 2 (2=21-40%) | 1 (1=0-20%) | 2 (2=21-40%) | 1 (1=0-20%) | 0 | 0 | 0 | ECHCG, percentage damage caused to the plant (five-point scale) [12]: 1 (1=0-20%); percentage damage to the plant, ABUTH (five-point scale) [10]: 0
CCn1c(C)c(-c2ccc(Cl)c(F)c2)c(=O)c(C(=O)O)c1-c1ccc(Cl)cc1 [Compound 201, 5-(4-chloro-3-fluoro-phenyl)-2-(4-chlorophenyl)-1-ethyl-6-methyl-4-oxo-pyridine-3-carboxylic acid] |  |  |  |  |  |  |  |  |  |  |  | 0 | 3 (3=41-60%) | 3 (3=41-60%) | 1 (1=0-20%) | 2 (2=21-40%) | 2 (2=21-40%) | 1 (1=0-20%) | 0 | 3 (3=41-60%) | ABUTH, percentage damage caused to the plant (five-point scale) [6]: 4 (4=61-80%); percentage damage to the plant, ABUTH (five-point scale) [10]: 2 (2=21-40%)
CCn1c(CCOC)c(-c2ccc(Cl)cc2)c(=O)c(C(=O)O)c1-c1ccc(Cl)c(Cl)c1 [Compound 203, 5-(4-chlorophenyl)-2-(3,4-dichlorophenyl)-1-ethyl-6-(2-methoxyethyl)-4-oxo-pyridine-3-carboxylic acid] |  |  |  |  |  |  |  |  |  |  |  | 0 | 0 | 0 | 0 | 0 | 1 (1=0-20%) | 0 | 0 | 1 (1=0-20%) | ABUTH, percentage damage caused to the plant (five-point scale) [6]: 0
CCn1c(C)c(-c2cccc(C(F)(F)F)n2)c(=O)c(C(=O)O)c1-c1ccc(Cl)c(Cl)c1 [Compound 217, 2-(3,4-dichlorophenyl)-1-ethyl-6-methyl-4-oxo-5-[6-(trifluoromethyl)-2-pyridyl]pyridine-3-carboxylic acid] |  |  |  |  |  |  |  |  |  |  |  | 3 (3=41-60%) | 2 (2=21-40%) | 2 (2=21-40%) | 3 (3=41-60%) | 0 | 0 | 0 | 1 (1=0-20%) | 1 (1=0-20%) | ECHCG, percentage damage caused to the plant (five-point scale) [12]: 1 (1=0-20%); percentage damage to the plant, ABUTH (five-point scale) [10]: 3 (3=41-60%)
